Experimental findings from patent US6596726B1, “Tricyclic compounds capable of inhibiting tyrosine kinases of the epidermal growth factor receptor family” (Warner Lambert Company, priority 1994, dated 2003) are described below.

The structures appear in SMILES notation.

Assay [1] relates to erbB-2, 3, 4 autophosphorylation in SK-BR-3 breast tumor cells. As to the kind of experiment: Inhibition of conditioned media-induced autophosphorylation in SK-BR-3 breast tumor cells. Conditions: SK-BR-3 cells, read-out: SKBR-3 IC50. It is filed as cell-based, human. As for the experimental part:
Cells were grown to 100% confluency in 100 mm Petrie dishes (Corning). After the cells were treated for 5 minutes with either EGF (epidermal growth factor), PDGF, or bFGF (basic fibroblast growth factor) (20 ng/ml) or 1 ml of conditioned media from MDA-MB-231 cells, the media was removed and the monolayer scraped into 1 ml of ice cold lysis buffer (50 mM Hepes, pH 7.5, 150 mM NaCl, 10% glycerol, 1% triton X-100, 1 mM EDTA, 1 mM EGTA, 10 mM sodium pyrophosphate, 30 mM p-nitrophenyl phosphate, 1 mM orthovanadate, 50 mM sodium fluoride, 1 mM phenylmethylsulfonylfluoride, 10 μg/ml of aprotinin, and 10 μg/ml of leupeptin). The lysate was transferred to a microfuge tube (small centrifuge that holds 1-2 ml plastic centrifuge tubes), allowed to sit on ice 15 minutes and centrifuged 5 minutes at 10,000×g. The supernatant was transferred to a clean microfuge tube and 5 μg of antibody was added to designated samples. The tubes were rotated for 2 hours at 4° C. after which 25 μl of protein A sepharose was added and then rotation continued for at least 2 more hours. The protein A separose was washed 5 times with 50 mM Hepes, pH 7.5, 150 mM NaCl, 10% glycerol and 0.02% sodium azide. The precipitates were resuspended with 30 μl of Laemlli buffer (Laemmli, NATURE, […], pp. 680-685, 1970), heated to 100° C. for 5 minutes and centrifuged to obtain the supernatant. Whole cell extracts were made by scraping cells grown in the wells of 6 well plates into 0.2 ml of boiling Laemmli buffer. The extract were transferred to a microfuge tube and heated to 100° C. for 5 minutes. The entire supernatant from the immunoprecipitation or 35 μl of the whole cell extract was loaded onto a polyacrylamide gel (4-20%) and electrophoresis carried out by the method of Laemlli (Laemmli, 1970). Proteins in the gel were electrophoretically transferred to nitrocellulose and the membrane was washed once in 10 mM Tris buffer, pH 7.2, 150 mM NaCl, 0.01% Azide (TNA) and blocked overnight in TNA containing 5% bovine serum albumin and 1% ovalbumin (blocking buffer). The membrane was blotted for 2 hours with the primary antibody (1 μg/ml in blocking buffer) and then washed 2 times sequentially in TNA, TNA containing 0.05% Tween-20 and 0.05% Nonidet P-40 (commercially available detergent) and TNA. The membranes were then incubated for 2 hours in blocking buffer containing 0.1 μCi/ml of [^125I] protein A and then washed again as above. After the blots were dry they were loaded into a film cassette and exposed to X-AR X-ray film for 1-7 days. Protein A is a bacterial protein that specifically bonds certain IgG subtypes and is useful in binding to and isolating antibody-antigen complexes.
Inhibition of EGF-Induced Autophosphorylation in A431 Epidermoid Carcinoma Cells and Conditioned Media-Induced Autophosphorylation in SK-BR-3 Breast Tumor Cells by Compounds of the Current Invention

Assay [2] relates to B104-1-1 NIH-3T3 mouse fibroblasts transfected by the neu oncogene. As to the kind of experiment: Growth inhibition assay (antiproliferative), B104-1-1. It is filed as cell-based. Conditions: 72 h, B104-1-1 cells, 3 days. The text has this:
Antiproliferative Properties of Tyrosine Kinase Inhibitors IC50 (nM)
B104-1-1—NIH-3T3 mouse fibroblasts transfected by the neu oncogene: Stern et al., Science, 234, pp. 321-324 (1987);

In assay [3] the test system is SK-BR-3 human breast carcinoma overexpressing erbB-2 and erbB-3. The assay is described as follows: Growth inhibition assay (antiproliferative), SK-BR-3. Conditions: 72 h, SK-BR-3 cells, 3 days. It is filed as cell-based.
Method: Cells (2×10^4) were seeded in 24-well plates (1.7×1.6 cm, flat bottom) in two mls of medium with or without various concentrations of drug. Plates were incubated for 3 days at 37° in a humidified atmosphere containing 5% CO2 in air. Cell growth was determined by cell count with a Coulter Model AM electronic cell counter (Coulter Electronics, Inc., Hialeah, Fla.).

For `Nc1ccc2sc3c(Nc4cccc(Br)c4)ncnc3c2c1` [Example 17, 8-Amino-4-(3-bromoanilino)benzo[b]thieno[3,2-d]pyrimidine], the IC50 was 23 nM in assay [1] and 2900 nM in assay [2].

Consider `Brc1cccc(Nc2ncnc3cc4[nH]cnc4cc23)c1` [Example 6, 4-(3-Bromoanilino)imidazolo[4,5-g]quinazoline], for which the half-inhibitory concentration (IC50) in assay [3] was determined as 200 nM; in assay [1], 55 nM; in assay [2], 3200 nM.

A word on the IC50: it is the concentration that inhibits the measured activity by half.
